Data on twelve compounds can be found in patent US8232319B2, “Amino phosphate derivative and S1P receptor modulator having same as an active ingredient” (Kyorin Pharmaceutical Co., Ltd., priority 2006, dated 2012).

A value given as a limit tells only on which side of the number the result lay.

Format in all cases: cell-based
What all share (conditions): Fluo 3, 100% = S1P at 10^-6 M

One assay has as its target T1, human S1P1 receptor (Homo sapiens, UniProt P21453).
T1 construct: expressed in transfected cells; host or cells: CHO-K1
Briefly: Intracellular calcium mobilization induced test, hS1P1 receptors expressing CHO-K1 cells. How it is done:
(§1) Intracellular Calcium Mobilization Induced Test of a Subject Compound Against Human S1P (sphingosine-1-phosphate) Receptor-expressing Cells
(§2) Human S1P receptors expressing CHO-K1 cells (hS1P1 receptors expressing CHO-K1 cells, hS1P3 receptors expressing CHO-K1 cells, and hS1P4 receptors expressing CHO-K1 cells), were maintained in Ham's F-12 medium containing 10% fetal bovine serum and 400 μg/mL Geneticin. Into a black, clear bottom, culture plate (BD Falcon) with 96 wells, 7×10^4 cells/well of the hS1P1 and hS1P3 receptors expressing CHO-K1 cells were plated, and […] of the hS1P4 receptors expressing CHO-K1 cells were plated. The cells were incubated overnight at 37° C. at 5% CO2. The medium in the wells were removed by suction. A loading buffer included in a Calcium Kit-Fluo 3 reagent (Dojindo Laboratories) was added as a fluorescent Ca^2+-binding indicator. The cells were incubated for 80 minutes at 37° C. at 5% CO2. After the incubation, the wells were washed with PBS. A recording buffer included in a Calcium Kit-Fluo 3 reagent was added, and the cells were incubated for 20 minutes at 37° C. at 5% CO2. Using a microplate spectrophotofluorometer (FLEX Station, Molecular Devices), the fluorescence intensity at an excitation wavelength of 485 nm and a detection wavelength of 525 nm was measured. S1P and the subject compound prepared in medium so that the concentration was 10-fold that of the final concentration (final DMSO concentration of 0.1%). The solution was added 18 seconds after the fluorescence measurement was started, and then fluorescence intensity was continuously measured every 1.5 seconds until 100 seconds after addition. A value (fluorescence increase) obtained by subtracting the minimum fluorescence intensity from the maximum fluorescence intensity was calculated from the measurement data. Taking the difference between the fluorescence increase when the solvent was added and the fluorescence increase when the S1P was allowed to act at 10^−6 M as 100%, the fluorescence increase ratio (%) of the subject compound was calculated. Taking this value as the intracellular calcium mobilization induced activity of the subject compound, the EC50 value was determined using PRISM software (GraphPad). In Table 1, 10 nmol/L>EC50 value ≧1 nmol/L is indicated as a +, and 1 nmol/L>EC50 value is indicated as a ++.
(Calcium flux is commonly read through the fluorescence of an indicator in the cells.)

The target in another assay is T2, human S1P3 receptor (Homo sapiens, UniProt Q99500).
T2 construct: expressed in transfected cells; host or cells: CHO-K1
T2 sequence (Q99500 whole entry): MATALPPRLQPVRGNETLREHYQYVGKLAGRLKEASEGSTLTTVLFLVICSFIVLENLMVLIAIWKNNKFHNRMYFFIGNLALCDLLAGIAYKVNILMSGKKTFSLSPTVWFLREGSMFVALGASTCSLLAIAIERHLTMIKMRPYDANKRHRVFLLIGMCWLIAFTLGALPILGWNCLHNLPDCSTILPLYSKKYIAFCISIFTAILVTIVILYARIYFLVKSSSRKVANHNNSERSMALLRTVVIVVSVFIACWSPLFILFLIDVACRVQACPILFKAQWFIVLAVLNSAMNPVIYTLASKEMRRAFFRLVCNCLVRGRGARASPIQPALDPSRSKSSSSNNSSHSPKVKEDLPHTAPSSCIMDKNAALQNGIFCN
Put plainly: Intracellular calcium mobilization induced test, hS1P3 receptors expressing CHO-K1 cells. The procedure: as §1, §2

The next assay deals with T3, human S1P4 receptor (Homo sapiens, UniProt O95977).
T3 construct: expressed in transfected cells; host or cells: CHO-K1
T3 sequence (O95977 1-384): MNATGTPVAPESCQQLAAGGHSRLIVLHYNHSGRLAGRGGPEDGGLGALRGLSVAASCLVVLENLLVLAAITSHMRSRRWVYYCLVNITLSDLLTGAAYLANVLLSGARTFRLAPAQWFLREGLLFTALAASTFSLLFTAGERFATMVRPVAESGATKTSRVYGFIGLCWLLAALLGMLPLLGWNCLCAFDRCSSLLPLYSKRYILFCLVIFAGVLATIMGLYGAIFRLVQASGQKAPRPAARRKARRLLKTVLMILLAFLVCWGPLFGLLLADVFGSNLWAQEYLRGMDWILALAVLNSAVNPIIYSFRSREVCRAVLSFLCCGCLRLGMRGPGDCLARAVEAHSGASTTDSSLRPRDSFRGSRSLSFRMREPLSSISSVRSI
Put plainly: Intracellular calcium mobilization induced test, hS1P4 receptors expressing CHO-K1 cells. The procedure: as §1, §2

T1 sequence (P21453 whole entry): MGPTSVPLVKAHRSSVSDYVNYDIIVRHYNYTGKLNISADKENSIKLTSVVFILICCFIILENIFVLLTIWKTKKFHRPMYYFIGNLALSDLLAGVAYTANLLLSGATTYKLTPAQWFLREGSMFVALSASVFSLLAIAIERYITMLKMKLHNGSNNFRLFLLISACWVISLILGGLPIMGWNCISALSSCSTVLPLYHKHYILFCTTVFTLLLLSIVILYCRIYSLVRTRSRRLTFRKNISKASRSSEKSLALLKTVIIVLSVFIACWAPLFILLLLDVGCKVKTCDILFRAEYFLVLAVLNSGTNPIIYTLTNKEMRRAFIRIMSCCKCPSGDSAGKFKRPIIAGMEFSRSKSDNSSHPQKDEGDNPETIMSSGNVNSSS

For the compound `C[C@@](N)(CCCc1ccc(Sc2cccc(Cl)c2)cc1Cl)COP(=O)(O)O` [Example 48, (R)-2-amino-5-[2-chloro-4-(3-chlorophenylthio)phenyl]-2-methylpentyl phosphonic acid monoester], the EC50 at human S1P1 receptor was 1 to 10 nM; on human S1P3 receptor, greater than 10000 nM; on human S1P4 receptor, less than 1 nM.
Take `Cc1cccc(Oc2ccc(CCC[C@@](C)(N)COP(=O)(O)O)c(Cl)c2)c1` [Example 45, (R)-2-amino-5-[2-chloro-4-(3-methylphenoxy)phenyl]-2-methylpentyl phosphonic acid monoester]: the EC50 at human S1P1 receptor is less than 1 nM; on human S1P3 receptor it was greater than 10000 nM; at human S1P4 receptor it was 1 to 10 nM.
The corresponding values for `C[C@@](N)(CCc1ccc(Oc2cccc(C(F)(F)F)c2)cc1Cl)COP(=O)(O)O` [Example 42, (R)-2-amino-4-[2-chloro-4-(3-trifluoromethylphenoxy)phenyl]-2-methylbutyl phosphoric acid monoester] are less than 1 nM, greater than 10000 nM and 1 to 10 nM.
As to `CCc1cccc(Sc2ccc(CCC[C@@](C)(N)COP(=O)(O)O)c(Cl)c2)c1` [Example 46, (R)-2-amino-5-[2-chloro-4-(3-ethylphenylthio)phenyl]-2-methylpentyl phosphonic acid monoester], the EC50 at human S1P1 receptor is less than 1 nM; on human S1P3 receptor, greater than 10000 nM; on human S1P4 receptor it was 1 to 10 nM.
For `C[C@@](N)(CCCc1ccc(Sc2cccc(C(F)(F)F)c2)cc1F)COP(=O)(O)O` [Example 49, (R)-2-amino-5-[2-fluoro-4-(3-trifluoromethylphenylthio)phenyl]-2-methylpentyl phosphonic acid monoester] the same measures were less than 1 nM, greater than 10000 nM and 1 to 10 nM.
The corresponding values for `C[C@@](N)(CCc1ccc(Sc2cccc(C(F)(F)F)c2)cc1Cl)COP(=O)(O)O` [Example 43] are less than 1 nM, greater than 10000 nM and 1 to 10 nM.
For `CCC[C@@](N)(CCCc1ccc(Sc2cccc(C(F)(F)F)c2)cc1Cl)COP(=O)(O)O` [Example 50, (R)-2-amino-5-[2-chloro-4-(3-trifluoromethylphenylthio)phenyl]-2-propylpentyl phosphonic acid monoester] the same measures were less than 1 nM, greater than 10000 nM and 1 to 10 nM.
Regarding `CCc1cccc(Sc2ccc(CC[C@@](C)(N)COP(=O)(O)O)c(Cl)c2)c1` [Example 44, (R)-2-amino-4-[2-chloro-4-(3-ethylphenylthio)phenyl]-2-methylbutyl phosphonic acid monoester], the figures for the EC50 at human S1P1 receptor, at human S1P3 receptor and on human S1P4 receptor were less than 1 nM, greater than 10000 nM and 1 to 10 nM, respectively.
For `CCCc1cccc(Oc2ccc(CCC[C@@](C)(N)COP(=O)(O)O)c(Cl)c2)c1` [Example 47, (R)-2-amino-5-[2-chloro-4-(3-propylphenoxy)phenyl]-2-methylpentyl phosphonic acid monoester] the same measures were less than 1 nM, greater than 10000 nM and 1 to 10 nM.
Regarding `C[C@@](N)(CCCc1ccc(Sc2cccc(C(F)(F)F)c2)cc1Cl)COP(=O)(O)O` [Example 41, (R)-2-amino-5-[2-chloro-4-(3-trifluoromethylphenylthio)phenyl]-2-methylpentyl phosphoric acid monoester], the figures for the EC50 at human S1P1 receptor, on human S1P3 receptor and at human S1P4 receptor were less than 1 nM, greater than 10000 nM and 1 to 10 nM, respectively.
The corresponding values for `C[C@@](N)(CCCc1ccc(Sc2cccc(C(F)F)c2)cc1Cl)COP(=O)(O)O` [Example 51, (R)-2-amino-5-[2-chloro-4-(3-difluoromethylphenylthio)phenyl]-2-methylpentyl phosphonic acid monoester] are 1 to 10 nM, greater than 10000 nM and 1 to 10 nM.
The corresponding values for `C[C@@](N)(CCCc1ccc(Oc2cccc(C(F)(F)F)c2)cc1Cl)COP(=O)(O)O` [Example 40, (R)-2-amino-5-[2-chloro-4-(3-trifluoromethylphenoxy)phenyl]-2-methylpentyl phosphoric acid monoester] are less than 1 nM, greater than 10000 nM and 1 to 10 nM.

Broadly, the EC50 is the midpoint of the concentration-response curve.
